In patent publication US6221914A, “Sulfonamide bridging compounds that inhibit tryptase activity” (Array Biopharma Inc., priority 1998, dated 2001):

System: antigen-induced airway hyperresponsiveness in guinea pigs
Test: Guinea pig airway hyperresponsiveness inhibition (ovalbumin-sensitized, histamine bronchoprovocation)
Assay type: in vivo, guinea pig (male Hartley)
Conditions: 1 mg/kg, i.t., 1 hour before antigen challenge; histamine response 6 h after antigen
Procedure: The compounds of the invention were tested for their ability to inhibit hyperresponsiveness in a guinea pig airway hyperresponsiveness screen according to the following protocol:
Male Hartley guinea pigs (Charles River Laboratories Inc., Wilmington, Mass.) were sensitized to ovalbumin by intraperitoneal injection with a 0.5 mL solution of 10 μg ovalbumin and 10 mg aluminum hydroxide in phosphate-buffered saline. […] Seven to nine weeks after the initial injection, the animals were used to evaluate antigen-induced guinea pig airway responses.
In order to evaluate antigen-induced airway hyperresponsiveness in guinea pigs, a baseline histamine bronchoprovocation was initially conducted in unrestrained animals. Guinea pigs (450-600 g) were placed in a whole body plethysmograph (Buxco Electronics, Troy, N.Y.). The animals were exposed to 5 second bursts of histamine aerosol generated by a DeVilbis ultrasonic nebulizer (Somerset, Pa.). […] Three days after the histamine baseline determination, the guinea pigs were again placed in the whole body plethysmograph and challenged with a 3 second aerosolized burst of 0.1% ovalbumin in phosphate-buffered saline. Six hours after antigen exposure, the development of hyperresponsiveness was evaluated by repeating the histamine bronchoprovocation. Comparisons between treatment groups were based on areas under the histamine dose response curves (AUC).
Test compounds were administered by intratracheal instillation at a dose of 1 mg/kg in PBS (pH 7.2), 1 hour before the antigen challenge. After anesthetizing a guinea pig with inhaled methoxyflurane, an endotracheal tube (18 gauge Teflon® sheath) was visually passed into the trachea with the aid of a fiberoptic light source. Test agents (or PBS for control animals) was dosed through the tube followed by a bolus of air to facilitate dispersion.
Two-way analysis of variance (ANOVA) followed by the Fisher PLSD test was used to evaluate areas under the curve ("AUC") for histamine dose responses in guinea pigs. Significance was accepted for p<0.05.

Structure (SMILES)	Hyperresponsiveness AUC % Inhibition
N=C(N)c1ccc(S(=O)(=O)NCc2ccc(OCCCOc3ccc(CNS(=O)(=O)c4ccc(C(=N)N)cc4)cc3)cc2)cc1 [Example 50, 1,3-Bis-{4-[(4-carbamimidoyl-benzenesulfonylamino)-methyl]-phenoxy}-propane]	50%
N=C(N)c1ccc(C(=O)NCc2ccc(OCCCCCOc3ccc(CNC(=O)c4ccc(C(=N)N)cc4)cc3)cc2)cc1 [Example 54, 1,5-Bis-{4-[(4-carbamimidoyl-benzenecarbonylamino)-methyl]-phenoxy}-pentane]	53%
N=C(N)c1ccc2[nH]c(CC(=O)NCc3ccc(OCCCCCOc4ccc(CNC(=O)Cc5nc6cc(C(=N)N)ccc6[nH]5)cc4)cc3)nc2c1 [Example 108]	68%
N=C(N)c1cccc(S(=O)(=O)NCc2ccc(OCCCCOc3ccc(CNS(=O)(=O)c4cccc(C(=N)N)c4)cc3)cc2)c1 [Example 47, 1,4-Bis-{4-[(3-carbamimidoyl-benzenesulfonylamino)-methyl]-phenoxy}-butane]	29%
N=C(N)c1ccc(C(=O)NCc2ccc(OCCCCCCOc3ccc(CNC(=O)c4ccc(C(=N)N)cc4)cc3)cc2)cc1 [Example 56, 1,6-Bis-{4-[(4-carbamimidoyl-benzenecarbonylamino)-methyl]-phenoxy}-hexane]	62%
N=C(N)c1cccc(C(=O)NCc2ccc(OCCCCCOc3ccc(CNC(=O)c4cccc(C(=N)N)c4)cc3)cc2)c1 [Example 55, 1,5-Bis-{4-[(3-carbamimidoyl-benzenecarbonylamino)-methyl]-phenoxy}-pentane]	107%
N=C(N)c1cccc(S(=O)(=O)NCc2ccc(OCCCCCOc3ccc(CNS(=O)(=O)c4cccc(C(=N)N)c4)cc3)cc2)c1 [Example 41, 1,5-Bis-{4-[(3-carbamimidoyl-benzenesulfonylamino)-methyl]-phenoxy}-pentane]	95%
